Assays:
pigweed = assay: Test B pre/postemergence pigweed; type: in vivo, Amaranthus retroflexus
Summary of the method: (§1)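 Test chemicals in a non-phytotoxic solvent mixture with surfactant were sprayed preemergence onto planted seeds and postemergence onto plants 2 to 18 cm tall (1- to 4-leaf stage). After twelve to sixteen days in a greenhouse, injury was visually rated against untreated controls from 0 (no effect) to 10 (complete control).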

giant foxtail = assay: Test B pre/postemergence giant foxtail; type: in vivo, Setaria faberii
Summary of the method: as §1

wheat = assay: Test B pre/postemergence wheat; type: in vivo, Triticum aestivum
Summary of the method: as §1

velvetleaf = assay: Test B pre/postemergence velvetleaf; type: in vivo, Abutilon theophrasti
Summary of the method: as §1

wild oat = assay: Test B pre/postemergence wild oat; type: in vivo, Avena fatua
Summary of the method: as §1

crabgrass = assay: Test B pre/postemergence crabgrass; type: in vivo, Digitaria sanguinalis
Summary of the method: as §1

corn = assay: Test B pre/postemergence corn; type: in vivo, Zea mays
Summary of the method: as §1

surinam grass = assay: Test B pre/postemergence surinam grass; type: in vivo, Brachiaria decumbens
Summary of the method: as §1

sugar beet = assay: Test B pre/postemergence sugar beet; type: in vivo, Beta vulgaris
Summary of the method: as §1

soybean = assay: Test B pre/postemergence soybean; type: in vivo, Glycine max
Summary of the method: as §1

morningglory = assay: Test B pre/postemergence morningglory; type: in vivo, Ipomoea hederacea
Summary of the method: as §1

rice = assay: Test B flood test rice; type: in vivo, Oryza sativa
Summary of the method: (§2)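 Plants were grown to the 2-leaf stage before treatment with test chemical, then held in a greenhouse for twelve to sixteen days. Injury was visually rated against untreated controls on a 0–10 scale, where 0 is no effect and 10 is complete control.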

bamyardgrass = assay: Test B flood test barnyardgrass; type: in vivo, Echinochloa crus-galli
Summary of the method: as §2

cocklebur = assay: Test B pre/postemergence cocklebur; type: in vivo, Xanthium strumarium
Summary of the method: as §1

blackgrass = assay: Test B pre/postemergence blackgrass; type: in vivo, Alopecurus myosuroides
Summary of the method: as §1

duck salad = assay: Test B flood test duck salad; type: in vivo, Heteranthera limosa
Summary of the method: as §2

[1] = Preemergence, Rate 62 g/ha, scale of 0 to 10 where 0 is no effect and 10 is complete control
[2] = Preemergence, Rate 250 g/ha, scale of 0 to 10 where 0 is no effect and 10 is complete control
[3] = Preemergence, Rate 500 g/ha, scale of 0 to 10 where 0 is no effect and 10 is complete control
[4] = Rate 62 g/ha, Postemergence, scale 0 to 10 (0 no effect, 10 complete control)
[5] = Rate 125 g/ha, Postemergence, scale of 0 to 10 where 0 is no effect and 10 is complete control
[6] = Rate 125 g/ha, Preemergence, scale of 0 to 10 where 0 is no effect and 10 is complete control
[7] = Rate 250 g/ha, Postemergence, scale of 0 to 10 where 0 is no effect and 10 is complete control
[8] = Rate 500 g/ha, Postemergence, scale 0 to 10, 0 no effect, 10 complete control
[9] = Rate 62 g/ha, headed Pre-emergence (flood test species), scale 0 to 10 (0 no effect, 10 complete control)
[10] = Rate 125 g/ha, Pre-emergence, flood test species, scale 0 to 10 where 0 is no effect and 10 is complete control
[11] = Rate 250 g/ha, Pre-emergence, flood-test species, scale 0 to 10, 0 is no effect, 10 is complete control
[12] = Rate 500 g/ha, Pre-emergence, flood test species, scale 0 to 10 (0 no effect, 10 complete control)

CCN(CC)C(=O)n1oc(=O)n(C2CC2)c1=O [Compound 297]
0: Redroot pigweed plant response rating (pigweed; [1]) | Redroot pigweed plant response rating (pigweed; [2]) | Plant response rating, Redroot pigweed (pigweed; [3]) | Redroot pigweed plant response rating (pigweed; [4]) | Redroot pigweed plant response rating (pigweed; [5]) | Redroot pigweed plant response rating (pigweed; [6]) | Plant response rating, Redroot pigweed (pigweed; [7]) | Giant foxtail plant response rating (giant foxtail; [1]) | Giant foxtail plant response rating (giant foxtail; [4]) | Giant foxtail plant response rating (giant foxtail; [5]) | Giant foxtail plant response rating (giant foxtail; [6]) | Plant response rating, Giant foxtail (giant foxtail; [7]) | Wheat plant response rating (wheat; [1]) | Wheat plant response rating (wheat; [2]) | Plant response rating, Wheat (wheat; [3]) | Wheat plant response rating (wheat; [4]) | Wheat plant response rating (wheat; [5]) | Wheat plant response rating (wheat; [6]) | Plant response rating, Wheat (wheat; [7]) | Velvetleaf plant response rating (velvetleaf; [1]) | Velvetleaf plant response rating (velvetleaf; [2]) | Plant response rating, Velvetleaf (velvetleaf; [3]) | Velvetleaf plant response rating (velvetleaf; [4]) | Velvetleaf plant response rating (velvetleaf; [5]) | Velvetleaf plant response rating (velvetleaf; [6]) | Plant response rating, Velvetleaf (velvetleaf; [7]) | Wild oats plant response rating (wild oat; [1]) | Wild oats plant response rating (wild oat; [2]) | Plant response rating, Wild oats (wild oat; [3]) | Wild oats plant response rating (wild oat; [4]) | Wild oats plant response rating (wild oat; [5]) | Plant response rating, Wild oats (wild oat; [7]) | Crabgrass plant response rating (crabgrass; [1]) | Crabgrass plant response rating (crabgrass; [4]) | Crabgrass plant response rating (crabgrass; [5]) | Plant response rating, Crabgrass (crabgrass; [7]) | Corn plant response rating (corn; [1]) | Corn plant response rating (corn; [2]) | Plant response rating, Corn (corn; [3]) | Corn plant response rating (corn; [4]) | Corn plant response rating (corn; [5]) | Corn plant response rating (corn; [6]) | Plant response rating, Corn (corn; [7]) | Corn plant response rating (corn; [8]) | B. signalgrass plant response rating (surinam grass; [1]) | B. signalgrass plant response rating (surinam grass; [2]) | Plant response rating, B. signalgrass (surinam grass; [3]) | B. signalgrass plant response rating (surinam grass; [4]) | B. signalgrass plant response rating (surinam grass; [5]) | B. signalgrass plant response rating (surinam grass; [6]) | Plant response rating, B. signalgrass (surinam grass; [7]) | B. signalgrass plant response rating (surinam grass; [8]) | Sugarbeets plant response rating (sugar beet; [1]) | Sugarbeets plant response rating (sugar beet; [2]) | Plant response rating, Sugarbeets (sugar beet; [3]) | Sugarbeets plant response rating (sugar beet; [4]) | Sugarbeets plant response rating (sugar beet; [5]) | Sugarbeets plant response rating (sugar beet; [6]) | Plant response rating, Sugarbeets (sugar beet; [7]) | Soybean plant response rating (soybean; [1]) | Soybean plant response rating (soybean; [2]) | Plant response rating, Soybean (soybean; [3]) | Soybean plant response rating (soybean; [6]) | Morningglory plant response rating (morningglory; [1]) | Morningglory plant response rating (morningglory; [2]) | Plant response rating, Morningglory (morningglory; [3]) | Morningglory plant response rating (morningglory; [4]) | Morningglory plant response rating (morningglory; [5]) | Morningglory plant response rating (morningglory; [6]) | Plant response rating, Morningglory (morningglory; [7]) | Rice plant response rating (rice; [9]) | Rice plant response rating (rice; [10]) | Rice plant response rating (rice; [11]) | Rice plant response rating (rice; [12]) | Barnyardgrass plant response rating (bamyardgrass; [9]) | Barnyardgrass plant response rating (bamyardgrass; [10]) | Barnyardgrass plant response rating (bamyardgrass; [11]) | Barnyardgrass plant response rating (bamyardgrass; [12]) | Cocklebur plant response rating (cocklebur; [1]) | Cocklebur plant response rating (cocklebur; [2]) | Plant response rating, Cocklebur (cocklebur; [3]) | Cocklebur plant response rating (cocklebur; [4]) | Cocklebur plant response rating (cocklebur; [5]) | Cocklebur plant response rating (cocklebur; [6]) | Plant response rating, Cocklebur (cocklebur; [7]) | Cocklebur plant response rating (cocklebur; [8]) | Blackgrass plant response rating (blackgrass; [1]) | Blackgrass plant response rating (blackgrass; [2]) | Plant response rating, Blackgrass (blackgrass; [3]) | Blackgrass plant response rating (blackgrass; [4]) | Blackgrass plant response rating (blackgrass; [5]) | Blackgrass plant response rating (blackgrass; [6]) | Plant response rating, Blackgrass (blackgrass; [7]) | Blackgrass plant response rating (blackgrass; [8]) | Ducksalad plant response rating (duck salad; [9]) | Ducksalad plant response rating (duck salad; [10]) | Ducksalad plant response rating (duck salad; [11]) | Ducksalad plant response rating (duck salad; [12])
2: Crabgrass plant response rating (crabgrass; [6]) | Soybean plant response rating (soybean; [4])
3: Soybean plant response rating (soybean; [5]) | Plant response rating, Soybean (soybean; [7])
7: Giant foxtail plant response rating (giant foxtail; [2]) | Plant response rating, Giant foxtail (giant foxtail; [3]) | Crabgrass plant response rating (crabgrass; [2]) | Plant response rating, Crabgrass (crabgrass; [3])
